Experimental findings from ChEMBL document CHEMBL1152639, “Design, synthesis and nootropic activity of new analogues of sunifiram and sapunifiram, two potent cognition-enhancers” (Bioorg Med Chem, 2009) are described below.

Calls of active or inactive are those of the source. No cut-off for these calls is given here.

Data set [1] deals with Mus musculus. The data set is described as follows: Antiamnesic activity against scopolamine-induced amnesia in ip dosed mouse by passive-avoidance test. The settings on record: read-out: MED. In kind it is functional.
For data set [2], the system named is Mus musculus. The data set is described as follows: Ratio of MED for drug to MED for piracetam against scopolamine-induced amnesia in ip dosed mouse by passive-avoidance test. In kind it is functional.
In data set [3] the test system is Mus musculus. The data set is described as follows: Procognitive effect in ip dosed mouse assessed as inhibition of memory deficit by passive-avoidance test. The format is functional. The following applies: read-out: MED.
Data set [4] deals with Mus musculus. The experiment in a line: Toxicity in ip dosed mouse assessed as change motor coordination by rota rod test. In kind it is organism-based. The settings on record: in vivo. (In the rotarod test animals must keep their balance on a rotating rod.)
In data set [5] the test system is Mus musculus. The experiment in a line: Effect on spontaneous motility in ip dosed mouse by hole-board test. The format is functional, organism-based.
Data set [6] deals with Mus musculus. The data set is described as follows: Effect on inspection activity in ip dosed mouse by hole-board test. The format is functional, organism-based.
In data set [7] the test system is Mus musculus. The data set is described as follows: Toxicity in ip dosed mouse assessed as change in gross behavior. In kind it is organism-based. The following applies: in vivo.

On to `CCC(=O)N1CCN(C(=O)Cc2ccccc2)CC1`, for which the minimal effective dose with Mus musculus [1] was found to be 1 mg/kg.

`CC(=O)N1CCCN(C(=O)Cc2ccccc2)CC1`: the Ratio in the data set with Mus musculus [2] came to 30. Further, the minimal effective dose in the data set with Mus musculus [1] came to 0.01 mg/kg; with Mus musculus [3], 1 mg/kg.

`CCC(=O)NC1CCN(C(C)=O)CC1`: the minimal effective dose with Mus musculus [1] turned out to be 10 mg/kg.

In the case of `NC(=O)CN1CCCC1=O` [PIRACETAM], the Activity entry in the data set on Mus musculus [4] and in the data set with Mus musculus [7] was “Non-toxic” throughout. Moreover, the minimal effective dose with Mus musculus [1] is 30 mg/kg. For the same molecule, the outcome with Mus musculus [5] and with Mus musculus [6] was inactive.

With `CCC(=O)N1CCN(C(=O)Oc2ccccc2)CC1`, the minimal effective dose with Mus musculus [1] worked out at 10 mg/kg.

Take `CCNC(=O)C1CCN(S(=O)(=O)c2ccc(F)cc2)CC1`: the minimal effective dose in the data set on Mus musculus [1] amounted to 1 mg/kg.

For `CC(=O)N1CCN(C(=O)c2ccccc2)C1`, the minimal effective dose in the data set on Mus musculus [1] stood at 1 mg/kg.

As to `CCCS(=O)(=O)N1CCCN(C(=O)CC)CC1`, in the data set with Mus musculus [2], the Ratio came out at 30. The minimal effective dose in the data set with Mus musculus [1] is greater than 10 mg/kg.

For the molecule `CCCS(=O)(=O)N1CCN(C(C)=O)C1`, in the data set with Mus musculus [1], the minimal effective dose was 10 mg/kg.

Regarding `CCC(=O)N1CCN(C(C)=O)CC1`, in the data set on Mus musculus [1], the minimal effective dose was 10 mg/kg.

For `CCCS(=O)(=O)N1CCCN(C(=O)CC)C1`, the minimal effective dose with Mus musculus [1] was greater than 10 mg/kg.

`CCCS(=O)(=O)N1CCN(C(=O)CC)CC1`: the Ratio with Mus musculus [2] is on record as 30. In addition, the minimal effective dose in the data set with Mus musculus [1] turned out to be 1 mg/kg.

On to `CCC(=O)N1CCN(S(=O)(=O)c2ccc(F)cc2)C1`, for which the minimal effective dose with Mus musculus [1] was 1 mg/kg.

`CC(=O)N1CCCN(S(=O)(=O)c2ccc(F)cc2)C1`: the minimal effective dose in the data set on Mus musculus [1] worked out at 1 mg/kg.

Consider `CCC(=O)N1CCN(C(=O)Nc2ccccc2)CC1`, for which the minimal effective dose with Mus musculus [1] is greater than 10 mg/kg.

On to `CC(=O)N1CCN(C(=O)c2ccccc2)CC1`, for which the Ratio in the data set with Mus musculus [2] is recorded as 30. Moreover, the minimal effective dose with Mus musculus [1] came to 10 mg/kg.

With `CCCS(=O)(=O)N1CCCN(C(C)=O)CC1`, the Ratio in the data set with Mus musculus [2] is 30. Besides, the minimal effective dose with Mus musculus [1] was greater than 10 mg/kg.

In the case of `CCC(=O)N1CCN(C(=O)c2ccccc2)C1`, the minimal effective dose in the data set on Mus musculus [1] was 1 mg/kg.

Take `CCCS(=O)(=O)N1CCN(C(=O)CC)C1`: the minimal effective dose in the data set on Mus musculus [1] was greater than 10 mg/kg.

In the case of `CC(=O)N1CCN(S(=O)(=O)c2ccc(F)cc2)CC1`, the Ratio with Mus musculus [2] came to 30. In addition, the minimal effective dose with Mus musculus [1] is 0.01 mg/kg.

Regarding `CC(=O)NC(=O)C1CCN(S(=O)(=O)c2ccc(F)cc2)CC1`, the minimal effective dose in the data set with Mus musculus [1] came out at 1 mg/kg.

`CCCS(=O)(=O)N1CCN(C(C)=O)CC1`: in the data set with Mus musculus [2], the Ratio was 30. For the same molecule, the minimal effective dose with Mus musculus [1] was found to be 0.1 mg/kg.

Take `CC(=O)N1CCCN(S(=O)(=O)c2ccc(F)cc2)CC1`: in the data set on Mus musculus [2], the Ratio is 30. Further, the minimal effective dose in the data set with Mus musculus [1] was found to be 1 mg/kg; in the data set on Mus musculus [3], 10 mg/kg.

As to `CCC(=O)N1CCC(NC(C)=O)CC1`, the minimal effective dose with Mus musculus [1] was greater than 10 mg/kg.

Regarding `CCC(=O)N1CCN(C(=O)c2ccccc2)CC1` [SUNIFIRAM], the Ratio in the data set with Mus musculus [2] amounted to 30. Moreover, the Activity result in the data set on Mus musculus [4] and in the data set on Mus musculus [7] was “Non-toxic” throughout. Moreover, the results for the minimal effective dose in the data set on Mus musculus [1] and in the data set with Mus musculus [3] were 0.001 mg/kg and 0.01 mg/kg, respectively. The result in the data set on Mus musculus [5] and in the data set on Mus musculus [6] was inactive.

For the molecule `CC(=O)N1CCCN(C(=O)c2ccccc2)CC1`, in the data set on Mus musculus [2], the Ratio came out at 30. The figures for the minimal effective dose in the data set with Mus musculus [1] and in the data set on Mus musculus [3] were 0.01 mg/kg and 1 mg/kg, respectively.

As to `CC(=O)N1CCCN(C(=O)c2ccccc2)C1`, in the data set on Mus musculus [1], the minimal effective dose was determined as 1 mg/kg.

As to `CC(=O)N1CCN(S(=O)(=O)c2ccc(F)cc2)C1`, the minimal effective dose in the data set with Mus musculus [1] was determined as 1 mg/kg.

As to `CCC(=O)N1CCCN(S(=O)(=O)c2ccc(F)cc2)C1`, in the data set on Mus musculus [1], the minimal effective dose came out at 1 mg/kg.

As for `CCCS(=O)(=O)N1CCCN(C(C)=O)C1`, in the data set with Mus musculus [1], the minimal effective dose was 1 mg/kg.

Consider `CCC(=O)N1CCCN(S(=O)(=O)c2ccc(F)cc2)CC1`, for which the Ratio in the data set on Mus musculus [2] was 30. Besides, the minimal effective dose in the data set with Mus musculus [1] stood at 1 mg/kg; in the data set with Mus musculus [3], 10 mg/kg.

Take `CC(=O)NC1CCN(S(=O)(=O)c2ccc(F)cc2)CC1` [SAPUNIFIRAM]: the Activity entry in the data set on Mus musculus [4] and in the data set on Mus musculus [7] was “Non-toxic” throughout. In addition, the minimal effective dose turned out to be 0.01 mg/kg in the data set on Mus musculus [1] and 0.1 mg/kg in the data set on Mus musculus [3]. Also, the result with Mus musculus [5] and with Mus musculus [6] was inactive.

Regarding `CCC(=O)N1CCCN(C(=O)c2ccccc2)CC1`, the Ratio in the data set on Mus musculus [2] was 30. Further, the minimal effective dose in the data set with Mus musculus [1] was found to be 0.1 mg/kg; in the data set on Mus musculus [3], 1 mg/kg.

`CNC(=O)C1CCN(S(=O)(=O)c2ccc(F)cc2)CC1`: the results for the minimal effective dose with Mus musculus [1] and with Mus musculus [3] were 0.1 mg/kg and 1 mg/kg, respectively.

Consider `CCC(=O)N1CCN(C(=O)CC)CC1`, for which the minimal effective dose in the data set on Mus musculus [1] was greater than 10 mg/kg.

Take `CCC(=O)N1CCN(S(=O)(=O)c2ccc(F)cc2)CC1`: the Ratio in the data set with Mus musculus [2] was 30. Besides, the minimal effective dose in the data set on Mus musculus [1] is 0.01 mg/kg.

`CCC(=O)N1CCCN(C(=O)c2ccccc2)C1`: the minimal effective dose with Mus musculus [1] is 1 mg/kg.
